Data on 64 compounds can be found in a melting point compilation (Tetko et al.; mined from patent text by program, amines drawn as free bases though some values may be those of a salt).

In the case of `O=C(Nc1cccnn1)N1CCN(c2cc(-c3ccc(F)cc3)ncn2)CC1`, the melting point lay within 254 to 255 °C.
`C#CCN(C)C(=S)Nc1ccccc1CC(=O)OC` had a melting point of 83 to 84 °C.
For `CC(C)Cn1nc(-c2ccccc2)c(-c2ccccc2)c1CO` the value was 154 °C.
Next, `Cc1cnc2ncc(-c3cccc(-c4ccccc4C#N)c3)n2n1`: 211 to 216 °C; `COC(=O)CSC(CCCc1ccccc1)c1ccc(OCc2ccc3ccc(F)cc3n2)cc1` (centres undefined): 64 to 66 °C.
Next, `CS(=O)c1c(C(F)(F)F)nn(-c2c(Cl)cc(C(F)(F)F)cc2Cl)c1N` (centres undefined): 142 to 145 °C.
Consider `CC(C(=O)O)n1cc(-c2ccccc2)c(=O)c(-c2cccc(C(F)(F)F)c2)c1` (centres undefined), for which the melting point lay within 236 to 237 °C.
In turn, `CCOC(=O)c1nn(-c2ccc([N+](=O)[O-])cc2)c2c1CCCC2` registered a melting point of 173 °C.
For `CNC(=O)N(C)C(=O)Nc1nc(C(Cl)(Cl)Cl)ns1` the value was 94 °C; for `CCOC(=O)c1cnc2c(C)csc2c1Cl`, 113 to 115 °C.
For `CN1CCN(C2=NC(=O)C(=Cc3cccc(-c4ccc(O)c(C56CC7CC(CC(C7)C5)C6)c4)c3)S2)CC1` the value was 291 to 294 °C; for `COc1cc(C)c2[nH]ccc2c1C(C)(N)c1nc2cc(C#N)ccc2[nH]1` (single isomer, unassigned; (-)), 201 °C.
For `CC(NC(=O)OC(C)(C)C)C1CCN(c2c(F)c(N)c3c(=O)[nH]c(=O)n4c3c2OCC4C)C1` (centres undefined) the value was 136 to 138 °C.
With `CC(=O)N1CC(CCN2CCC(c3c[nH]c4cc(Cl)ccc34)CC2)c2ccccc21` (centres undefined), the melting point was 188 to 190 °C.
For `CC(=O)NCCC1CCc2c(Cl)cc3nn(C)cc3c21` (centres undefined) the value was 143 to 144 °C; for `COC1=NC2OC(C(O)c3ccc(Cl)cc3Cl)=C(N)C2C=C1` (centres undefined), 259 to 260 °C.
As to `CC(=O)Nc1ccc(S(=O)(=O)NCCCN2CCOCC2)cc1`, the melting point lay in the range of 97 to 98 °C.
Regarding `Cc1nc(O)c(C)c(O)n1`, the melting point is 300 °C.
Next, `CCOC(=O)C=Cc1ccc(C=CC(=O)OCC)c2ccccc12`: 90 to 91 °C; `Cc1nnc(-c2ccc3c(c2)c2cc(-c4ccc(Cl)cc4Cl)c(=O)n(C)c2n3C)o1`: 311 to 316 °C; `CC1(C)Cc2c(Cl)c([N+](=O)[O-])cc(C(=O)O)c2O1`: 260 to 262 °C.
Next, `CCOC(=O)c1c(O)nc(SC(C)C)n1C(C)C`: 97 to 98 °C; `O=CNCC(=O)c1ccc(Cl)s1`: 111 to 113 °C; `O=C(CNC(=O)c1ccc([N+](=O)[O-])cc1F)OCc1ccccc1`: 104 to 106 °C.
Next, `COc1ccc(CN2CCN(NC(=O)c3cc(Cl)c(N)cc3OC)CC2)cc1`: 154 to 156 °C; `CCCCCc1ccc(-c2c(C(C)C)cc(-c3ccccc3)c(CO)c2C(C)C)nc1`: 56 to 58 °C; `COC(=O)C1=C(C(=O)OC)c2c(sc3ccccc23)CC1`: 129 °C.
For the compound `C=CCOc1cc2c(cc1CC=C)CCC(=O)N2`, the melting point was 137 to 139 °C.
For `O=c1[nH]nc2n1-c1ccc(N3CCCC3)nc1C(c1ccccc1Cl)=[N+]([O-])C2` the value was 200 °C; for `CCCN(CCC)C(=O)Cn1c(=O)n(C)c2cnc(-c3ccccc3)nc21`, 156 to 157 °C.
Regarding `CCOC(=O)C1CCC(c2ccc(Cl)cc2)n2c(=O)n(CCCl)c(=O)n21` (centres undefined), the melting point fell in the range of 111 to 112 °C.
For `Cc1cccc(NC(=O)NCC(=O)N(CC(=O)N(c2ccccc2)C(C)C)c2ccccc2)c1` the value was 170 °C.
In turn, `Cc1c(C#N)c(O)cc2nc(Cc3ccccc3)nn12` yielded a melting point of 319 to 320 °C.
`COc1ccc(-c2nnc(Cl)nc2-c2ccc(OC)cc2)cc1` came in with a melting point of 130 to 132 °C.
Next, `CCOC(=O)C(C)Oc1ccc(Oc2nc3ccc(Cl)cc3s2)cc1` (centres undefined): 49 °C; `O=C1N(Cc2sccc2Cl)c2ccccc2C12COc1cc3c(cc12)OCO3` (centres undefined): 161 to 163 °C; `N#CCOc1cc(-c2ccccc2)[nH]n1`: 143 °C.
For `Cc1nc2ccccc2nc1Oc1ccc(OCc2ccccc2)cc1` the value was 99 to 102 °C; for `COc1ccc(C2=NN(C3CCN(C(=O)c4ccccc4)CC3)C(=O)CC2)cc1OC`, 152 to 154 °C.
For `CCOc1ncc(C(C)=O)cc1C(=O)O` the value was 117 to 118 °C; for `CCOC(=O)c1ncn2c1COc1ccccc1-2`, 135 to 137 °C; for `CCCOc1ccc(-c2scc(-c3ccccc3Cl)c2CC(=O)OC)cc1`, 81 to 82 °C.
In turn, `Cn1cc(C(=O)CCC(=O)O)nc1-c1ccccc1` showed a melting point of 191 to 192 °C.
The compound `CN(c1ccc(Cl)cc1)c1ncnc2cc(Cl)ccc12` displayed a melting point of 129 to 131 °C.
Next, `CC(C)(O)C[C@@H]1CO[C@](C)([C@H]2CC[C@H]3C(=O)CCC[C@@]32C)C1`: 82 °C.
For `CCn1cc(-c2ccc(O)cc2)nc1S` the value was 252 °C; for `Cc1nn2ccc3c(c2c1CO)CCO3`, 173 to 174 °C.
For `c1ccc(-n2c3ccccc3c3c2ccc2c4ccccc4n(-c4ccccc4)c23)cc1` the value was 166 °C.
For `Cc1cccc(-c2nc3ccc(Cl)nn3c2-c2ccnc(Nc3ccccc3C)c2)c1`, the melting point is 191 to 192 °C.
For `O=C1c2ccc(Nc3ccc(F)cc3F)cc2CCc2ccc(OCCCN3CCOCC3)cc21` the value was 114 °C.
For `CS(=O)(=O)Nc1cc([N+](=O)[O-])ccc1OC1CCCCC1` the value was 105 to 106 °C; for `CN1CCC2(C)c3cc(OC(=O)N4CCc5ccccc5C4)ccc3N(C)C12` (centres undefined), 118 to 119 °C; for `CC#Cc1ccc(NC(=O)C#Cc2ccc(CCN3CCCC3)cc2)cc1`, 198 to 199 °C.
For `COc1cc2c(cc1OC)CC(O)(CC(=O)O)CC2` (centres undefined) the value was 100 to 102 °C; for `COc1cc2[nH]c(SCc3nccc(OC)c3OC)nc2cc1OC(F)F`, 137 to 138 °C; for `CCn1c(=O)c2[nH]c(/C=C/c3ccc(C(F)(F)F)cc3)nc2n(CC)c1=O`, over 280 °C.
For the compound `Cc1cccc(-c2ccc(=O)[nH]n2)c1`, the melting point lay in the range of 202 to 205 °C.
Turning to `CC1Cc2c(c(Cl)cc(Cl)c2-n2nc(C(C)(C)C)oc2=O)O1` (centres undefined), the melting point was in the range of 112 to 115 °C.
For `CC(C)C1CCC(C)(OC(=O)OC2(C)CCC(C(C)C)CC2)CC1` (centres undefined) the value was 101 to 102 °C; for `CCOC(=O)CCC(=O)c1ccc(Cl)cc1O`, 68 to 69 °C; for `NCCc1c[nH]c2cc(Cl)c(NC(N)=O)cc12`, 212 to 213 °C.
For `Cc1cc(OCCN(C)C)ccc1NC(=O)c1ccc(N2CCNCC2)cc1` the value was 139 to 141 °C; for `CCN1c2c(occ(C=O)c2=O)-c2ccccc2S1(=O)=O`, 160 to 162 °C.
For `CCOC(=O)CC[C@H](NC(=O)c1ccc(C(=Cc2cnc3nc(NC(=O)C(C)(C)C)nc(O)c3c2)COC2CCCCO2)cc1)C(=O)OCC` (some centres undefined) the value was 273 to 275 °C.

Broadly, the melting point is the temperature of the solid-liquid transition.
